In patent US20050282818A1, “Ubiquitin ligase inhibitors” (Rigel Pharmaceuticals, Inc., priority 2004, published 2005):

Molecular target: T1, TRAF6/Uev1A/Ubc13 (Homo sapiens, UniProt Q9Y4K3)
T1 sequence (Q9Y4K3 1-522): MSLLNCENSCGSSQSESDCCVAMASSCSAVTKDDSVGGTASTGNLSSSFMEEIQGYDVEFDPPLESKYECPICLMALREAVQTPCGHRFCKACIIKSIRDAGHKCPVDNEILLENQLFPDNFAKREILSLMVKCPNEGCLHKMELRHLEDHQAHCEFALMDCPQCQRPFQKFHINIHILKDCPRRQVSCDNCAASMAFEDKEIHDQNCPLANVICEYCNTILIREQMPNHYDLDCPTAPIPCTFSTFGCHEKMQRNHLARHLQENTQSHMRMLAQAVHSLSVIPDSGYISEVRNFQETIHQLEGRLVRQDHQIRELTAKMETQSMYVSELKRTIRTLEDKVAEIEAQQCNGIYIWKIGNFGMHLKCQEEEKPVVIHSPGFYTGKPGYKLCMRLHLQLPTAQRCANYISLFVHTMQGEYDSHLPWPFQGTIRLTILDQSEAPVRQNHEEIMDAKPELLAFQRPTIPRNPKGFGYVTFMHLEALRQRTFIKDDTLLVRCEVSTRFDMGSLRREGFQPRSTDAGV
Experiment: TRAF6/Uev1A/Ubc13 plate-based ubiquitin ligase assay
Assay type: biochemical
Protocol: For the assays described below, the TRAF6/Uev1A/UBC13 assay is the biochemical plate-based assay of TRAF6 ligase activity using Ubc13 as the E2 enzyme. The gel-based assay is the biochemical solution-based TRAF6 ligase assay (by SDS-PAGE and Western blot) to confirm the plate-based ELISA assay. The APC assay is an assay which is another E3 ligase (APC2/APC11) biochemical assay.
A 96-well Ni-plate was blocked with 100 μl of 1% casein in PBS for 1 hour at room temperature. The plates were then washed three times with 200 μl of 1×PBS and 80 μl of a reaction buffer was added per well which contained 50 ng of Flag-ubiquitin, 50 ng of His-ubiquitin, 62.5 mM Tris pH 7.5, 6.25 mM MgCl2, 1.0 mM DTT, and 2 μM ATP. To each well was added 10 μl of a solution of the compound in DMSO. The reaction was started by adding 10 μl of a solution consisting of 10 ng human E1, 25 ng each of Uev1a and Ubc13, and 100 ng TRAF6 in the reaction buffer. The plates were shaken for 10 minutes and incubate at room temperature for 1 hour. After the incubation, the plates were washed three times with 200 μl 1×PBS in 0.05% Tween and 100 μl of an antibody mix consisting of anti-Flag (1:30,000 dilution; Sigma F-3165) and anti-Mouse IgG-HRP (1/150,000 dilution; Jackson Immunoresearch #115-035-146) in 1×PBS with 0.25% BSA. The plates were then incubated for another 1 hour at room temperature, and after incubation the plate was washed three times with 200 μl 1×PBS with 0.05% Tween. The amount of ubiquitin was measured by adding 100 μl of Lumino substrate (1:5 dilution) and reading the luminescence with a fluorimeter.
Table 2 below illustrates the inhibitory activity of the compounds of the invention determined by the TRAF6/Uev1A/Ubc13 assay as well as in the ICAM, APC and the ROC1/CUL1 Ubiquitin Ligase Assay (SCF Assay). The IC50 values were determined using a various concentrations of the compounds.

IC50 | Structure (SMILES)
≥ 20 µM | CCN(CC)c1cc(N2CCC(O)(c3ccccc3)CC2)c2nonc2c1[N+](=O)[O-] [compound 299, 1-[6-(diethylamino)-7-nitro-2,1,3-benzoxadiazol-4-yl]-4-phenylpiperidin-4-ol]
≥ 20 µM | O=[N+]([O-])c1c(N2CCCCC2)cc(N2CCC3(CC2)OCc2ccccc23)c2nonc12 [compound 300, 1′-(7-nitro-6-piperidin-1-yl-2,1,3-benzoxadiazol-4-yl)-3H-spiro[2-benzofuran-1,4′-piperidine]]
≥ 20 µM | O=S(=O)(Nc1cccc(F)c1)c1ccc(Nc2cccc(F)c2)c2nonc12 [compound 273, N-(3-fluorophenyl)-7-[(3-fluorophenyl)amino]-2,1,3-benzoxadiazole-4-sulfonamide]
≥ 20 µM | CCN(CC)c1cc(N2CCC3(CC2)OC(=O)c2ccccc23)c2nonc2c1[N+](=O)[O-] [compound 303, 1′-[6-(diethylamino)-7-nitro-2,1,3-benzoxadiazol-4-yl]-3H-spiro[2-benzofuran-1,4′-piperidin]-3-one]
≥ 20 µM | CC1(C)CCN(S(=O)(=O)c2ccc(Cl)c3nonc23)CC1 [compound 247, 4-chloro-7-[(4,4-dimethylpiperidin-1-yl)sulfonyl]-2,1,3-benzoxadiazole]
≥ 20 µM | N#Cc1cccnc1N1CCN(c2cc(N3CCCCC3)c([N+](=O)[O-])c3nonc23)CC1 [compound 297, 2-[4-(7-nitro-6-piperidin-1-yl-2,1,3-benzoxadiazol-4-yl)piperazin-1-yl]nicotinonitrile]
≥ 20 µM | O=S(=O)(Nc1cccc2nsnc12)c1ccc(Oc2ccc(C(F)(F)F)cc2Cl)nc1 [compound 117, N-2,1,3-benzothiadiazol-4-yl-6-[2-chloro-4-(trifluoromethyl)phenoxy]pyridine-3-sulfonamide]
≥ 20 µM | O=S(=O)(c1ccc(Sc2ccc3ccccc3n2)c2nonc12)N1CCN(c2ccccc2)CC1 [compound 252, 2-({7-[(4-phenylpiperazin-1-yl)sulfonyl]-2,1,3-benzoxadiazol-4-yl}thio)quinoline]
1 to 20 µM | O=[N+]([O-])c1c(N2CCCCC2)cc(N2CCN(c3ncc(C(F)(F)F)cc3Cl)CC2)c2nonc12 [compound 296, 7-{4-[3-chloro-5-(trifluoromethyl)pyridin-2-yl]piperazin-1-yl}-4-nitro-5-piperidin-1-yl-2,1,3-benoxadiazole]
≥ 20 µM | O=S(=O)(Nc1cccc2nonc12)c1ccc(Oc2ccc3c(C(F)(F)F)cc(C(F)(F)F)nc3n2)cc1 [compound 81, N-2,1,3-benzoxadiazol-4-yl-4-{[5,7-bis(trifluoromethyl)-1,8-naphthyridin-2-yl]oxy}benzenesulfonamide]
≥ 20 µM | COC(=O)c1ccc(NS(=O)(=O)c2ccc(Sc3ccc4ccccc4n3)c3nonc23)cc1 [compound 316, Methyl 4-({[7-(quinolin-2-ylthio)-2,1,3-benzoxadiazol-4-yl]sulfonyl}amino)benzoate]
1 to 20 µM | O=[N+]([O-])c1ccc(N2CCN(c3ccc([N+](=O)[O-])c4nonc34)CC2)cc1 [compound 147, 4-nitro-7-[4-(4-nitrophenyl)piperazin-1-yl]-2,1,3-benzoxadiazole]
≥ 20 µM | CCN(CC)c1cc(N2CCN(c3ccc(Cl)c(C(F)(F)F)c3)CC2)c2nonc2c1[N+](=O)[O-] [compound 292, 7-{4-[4-chloro-3-(trifluoromethyl)phenyl]piperazin-1-yl}-N,N-diethyl-4-nitro-2,1,3-benzoxadiazol-5-amine]
1 to 20 µM | O=S(=O)(c1ccc(Sc2cccc3ccccc23)c2nonc12)N1CCN(c2ccccc2)CC1 [compound 253, 4-(1-naphthylthio)-7-[(4-phenylpiperazin-1-yl)sulfonyl]-2,1,3-benzoxadiazole]
≥ 20 µM | CCN(CC)c1cc(N2CCN(c3ncc(C(F)(F)F)cc3Cl)CC2)c2nonc2c1[N+](=O)[O-] [compound 293, 7-{4-[3-chloro-5-(trifluoromethyl)pyridin-2-yl]piperazin-1-yl}-N,N-diethyl-4-nitro-2,1,3-benzoxadiazol-5-amine]
≥ 20 µM | COC(=O)c1ccc(NS(=O)(=O)c2ccc(N3CCSCC3)c3nonc23)cc1 [compound 250, methyl 4-{[(7-thiomorpholin-4-yl-2,1,3-benzoxadiazol-4-yl)sulfonyl]amino}benzoate]
1 to 20 µM | Cc1cc(F)ccc1NS(=O)(=O)c1ccc(F)c2nonc12 [compound 276, 7-fluoro-N-(4-fluoro-2-methylphenyl)-2,1,3-benzoxadiazole-4-sulfonamide]
≥ 20 µM | FC(F)(F)c1cccc(-c2cccc3nonc23)c1 [compound 305, 4-[3-(Trifluoromethyl)phenyl]-2,1,3-benzoxadiazole]
≥ 20 µM | COC(=O)c1ccc(NS(=O)(=O)c2ccc(Oc3cccc4cccnc34)c3nonc23)cc1 [compound 277, methyl 4-({[7-(quinolin-8-yloxy)-2,1,3-benzoxadiazol-4-yl]sulfonyl}amino)benzoate]
≥ 20 µM | O=[N+]([O-])c1c(N2CCCCC2)cc(N2CCC(O)(c3ccccc3)CC2)c2nonc12 [compound 301, 1-(7-nitro-6-piperidin-1-yl-2,1,3-benzoxadiazol-4-yl)-4-phenylpiperidin-4-ol]
≥ 20 µM | COC(=O)c1ccc(NS(=O)(=O)c2ccc(Sc3ccc4ccccc4n3)c3nonc23)cc1 [compound 248, methyl 4-({[7-(quinolin-2-ylthio)-2,1,3-benzoxadiazol-4-yl]sulfonyl}amino)benzoate]
1 to 20 µM | Cc1cc(F)ccc1Nc1ccc(S(=O)(=O)Nc2ccc(F)cc2C)c2nonc12 [compound 275, N-(4-fluoro-2-methylphenyl)-7-[(4-fluoro-2-methylphenyl)amino]-2,1,3-benzoxadiazole-4-sulfonamide]
≥ 20 µM | O=[N+]([O-])c1ccc(S(=O)(=O)c2cccc3cccnc23)c2nonc12 [compound 290, 8-[(7-nitro-2,1,3-benzoxadiazol-4-yl)sulfonyl]quinoline]
≥ 20 µM | CCN(CC)c1cc(N2CCN(c3ncccc3C#N)CC2)c2nonc2c1[N+](=O)[O-] [compound 294, 2-{4-[6-(diethylamino)-7-nitro-2,1,3-benzoxadiazol-4-yl]piperazin-1-yl}nicotinonitrile]
≥ 20 µM | O=S(=O)(c1cccc2nsnc12)N1CCC(Oc2ccccc2C(F)(F)F)CC1 [compound 240, 4-({4-[2-(trifluoromethyl)phenoxy]piperidin-1-yl}sulfonyl)-2,1,3-benzothiadiazole]
1 to 20 µM | O=S(=O)(c1ccc(Sc2ccc(O)cc2)c2nonc12)N1CCN(c2ccccc2)CC1 [compound 249, 4-({7-[(4-phenylpiperazin-1-yl)sulfonyl]-2,1,3-benzoxadiazol-4-yl}thio)phenol]
≥ 20 µM | FC(F)(F)c1cnc(N2CCN(c3ccc(N4CCOCC4)c4nonc34)CC2)c(Cl)c1 [compound 282, 4-{4-[3-chloro-5-(trifluoromethyl)pyridin-2-yl]piperazin-1-yl}-7-morpholin-4-yl-2,1,3-benzoxadiazole]
≥ 20 µM | O=S(=O)(c1ccc(Sc2ccncc2)c2nonc12)N1CCN(c2ccccc2)CC1 [compound 251, 4-[(4-phenylpiperazin-1-yl)sulfonyl]-7-(pyridin-4-ylthio)-2,1,3-benzoxadiazole]

Structure (SMILES) | IC50
O=C1OC2(CCN(c3ccc([N+](=O)[O-])c4nonc34)CC2)c2ccccc21 [compound 302, 1′-(7-nitro-2,1,3-benzoxadiazol-4-yl)-3H-spiro[2-benzofuran-1,4′-piperidin]-3-one] | 1 to 20 µM
O=[N+]([O-])c1ccc(N2CCSCC2)c2nonc12 [compound 237, 4-nitro-7-thiomorpholin-4-yl-2,1,3-benzoxadiazole] | ≥ 20 µM
O=[N+]([O-])c1ccc(N2CCC(S(=O)(=O)c3ccccn3)CC2)c2nonc12 [compound 289, 4-nitro-7-[4-(pyridin-2-ylsulfonyl)piperidin-1-yl]-2,1,3-benzoxadiazole] | ≥ 20 µM
